{
  "source": "patent US10406227B2",
  "about": "“Photoactivated molecules for light-induced modulation of the activity of electrically excitable cells and methods of using same” (University of Southern California, priority 2012, dated 2019)",
  "key": {"HEK293T cells [1]": {"test_system": "HEK293T cells", "assay": "Voltage-clamp membrane current during illumination", "assay_type": "cell-based, human", "settings": "voltage-clamp at approximately −80 mV", "method": "To examine whether light-activated RubpyC17 can directly interact and open or block endogenous ion channels, HEK293T cells were preincubated with RubpyC17, and patch-clamped in a voltage-clamp configuration. Voltage-clamp configuration allowed the cells to be clamped at a potential where most voltage-gated ion channels are closed (approximately −80 mV). […] The current-voltage relationship (FIGS. 5C, D) as well as the steady-state voltage-dependent activation curves of RubpyC17-treated chromaffin cells in voltage-clamp mode before and during light illumination (FIG. 5E)."}, "INS cells": {"test_system": "INS cells", "assay": "Imaging RubpyC17 in live cells (membrane luminescence)", "assay_type": "cell-based, rat", "method": "(§1) Cells were imaged at 1-3 days after plating. The glass-bottomed chambers with adherent cells were washed twice with PBS and then filled with standard extracellular solution consisting of 140 mM NaCl, 2.8 mM KCl, 10 mM HEPES, 1 mM MgCl2, 2 mM CaCl2, and 10 mM glucose, pH adjusted to 7.2-7.4 and osmolarity adjusted to 290-310 mOsm. The chamber was then mounted on an Olympus IX70 inverted microscope stage for imaging, using a Cascade 512B EMCCD camera, operated by Metamorph software. Initial imaging was done with cells in extracellular solution without RubpyC17, first under brightfield to evaluate cell health and morphology, then under widefield argon ion laser illumination at 488 nm (Coherent, Innova 90-5, Santa Clara, Calif.), to evaluate autofluorescence. Next, the extracellular solution was removed and replaced with extracellular solution containing the RubpyC17 compound (10 μM in ≤0.01% DMSO, final concentrations). Cell images were then acquired with illumination at 488 nm (collected with a long-pass red emission filter). For electrophysiological experiments, RubpyC17 compound was added to the extracellular solution (2-10 μM in ≤0.01% DMSO, final concentrations as indicated) and cells were incubated for 1.5-45 min, as indicated, then washed with extracellular solution without RubpyC17. Some chromaffin cells were also exposed continuously to 490-900 nM RubpyC17-containing extracellular solution.\n(§2) Illustrated here are rat insulinoma INS cells (FIG. 1C, top), human embryonic kidney (HEK293T) cells (FIG. 1C, middle), and primary cultured mouse chromaffin cells (FIG. 1C, bottom). […] All cell types preserved morphology for at least 10 minutes. […] One embodiment of the possible light-induced electron transfer is depicted in FIG. 1D."}, "mouse chromaffin cells": {"test_system": "mouse chromaffin cells", "assay": "Carbon fiber amperometry of light-triggered secretion", "assay_type": "cell-based", "method": "Carbon fiber electrodes were prepared using established methodology and coupled to an EPC10 amplifier. A+800 mV constant voltage was applied to the electrode relative to the Ag/AgCl bath electrode. The amperometry recordings were sampled at 4 kHz using Pulsemaster (HEKA). Extracellular composition consisted of 120 mM NaCl, 20 mM KCl, 10 mM HEPES, 1 mM MgCl2, 2 mM CaCl2, 10 mM glucose, pH adjusted to 7.2-7.4, and osmolarity adjusted to 290-300. Light stimulation in the blue spectrum originated from a xenon lamp source through a 470/40 nm bandpass excitation filter. The duration of illumination varied and is indicated by bars on figures.\nAction potential firing triggers secretion of norepinephrine and epinephrine from adrenal chromaffin cells, which can be readily detected by the technique of carbon-fiber amperometry, thus serving as a surrogate to detect action potential firing. […] Out of 18 RubpyC17-loaded cells tested, 15 cells (83%) experienced increased secretion by at least 100-fold during light illumination. Unlike the changes in light-induced depolarization, light-induced changes in secretion appeared to be more transient. One possible explanation for this is that at any moment in time, there are only a small number of release-competent vesicles—the so-called readily releasable pool of vesicles—and maintained stimulation causes rapid depletion of the readily releasable pool of vesicles in the initial phase of stimulation."}, "HEK293T cells [2]": {"test_system": "HEK293T cells", "assay": "Imaging RubpyC17 in live cells (membrane luminescence)", "assay_type": "cell-based, human", "method": "as §1, §2"}, "[3]": {"test_system": "mouse adrenal chromaffin cells", "assay": "Perforated patch clamp action potential recording", "assay_type": "cell-based", "method": "Action potentials in chromaffin cells were monitored using perforated patch clamp electrophysiology in current-clamp mode, using an EPC10 amplifier and Pulsemaster data acquisition software (HEKA electronics). A coverslip containing mouse chromaffin cells was transferred to a recording chamber and perfused with extracellular solution. Extracellular solution consists of 140 mM NaCl, 2.8 mM KCl, 10 mM HEPES, 1 mM MgCl2, 2 mM CaCl2, 10 mM glucose, pH adjusted to 7.3, and osmolarity adjusted to 290-300 mOsm. Intracellular solution consisted of 145 mM KCl, 10 mM NaCl, 1 mM MgCl2, and 10 mM HEPES, pH adjusted to 7.3 and osmolarity adjusted to 290-300 mOsm. Perforation solution was prepared by adding 4.5 μl of 125 mg/ml stock of amphoterecin B (Sigma) in DMSO to 1.8 mls of intracellular solution, and homogenizing for 5-10 s. Perforation was achieved within 3-10 min following gigaseal formation. Series resistances were in the range of 8-22 Mohm. Light stimulation in the blue spectrum originated from a xenon lamp source with an irradiance value of 0.480 mE s^−1 m^−2 through a 470/40 nm bandpass excitation filter. The duration of illumination varied and is indicated by bars on figures.\nThe behavior of excitable cells (cells capable of firing action potentials) treated with RubpyC17 was next investigated. Perforated patch clamp recording was performed on mouse adrenal chromaffin cells pretreated with 450-900 nM RubpyC17 for 15-30 minutes before beginning electrophysiological recordings. […] A slow, gradual reversal, on the order of seconds after light illumination was terminated (FIG. 3A), was observed."}, "RCS rats [4]": {"test_system": "RCS rats", "assay": "Retina histology / pathology after intravitreal injection", "assay_type": "in vivo, rat", "from_the_text": "(§3) This finding was reproduced in 3 of 3 RCS rats injected with Rubpy-C17, and in 2 of 2 control (sham injection) RCS rats."}, "RCS rats [5]": {"test_system": "RCS rats", "assay": "Pupillary light reflex after intravitreal injection", "assay_type": "in vivo, rat", "from_the_text": "FIG. 16 depicts the papillary light response in RCS rats.\nas §3"}, "[6]": {"settings": "10 μM in bath, 488 nm excitation"}, "[7]": {"settings": "10 minutes after RubpyC17 removal"}},
  "note": "“Also recorded” adds a separate entry of the source.",
  "data": [
    {"substance": "[Ru(bpy)2(bpy-C17)](PF6)2 [RubpyC17]", "values": [
      {"measurement": "light-induced changes in membrane current", "setting": "HEK293T cells [1]", "value": "did not exhibit light-induced changes in membrane current"},
      {"measurement": "time cell morphology preserved", "setting": "INS cells; 10 μM RubpyC17", "value": "at least 10 minutes"},
      {"measurement": "incorporation into plasma membrane (membrane-localized luminescence)", "setting": "INS cells; [6]", "value": "rapidly and stably incorporates into mammalian cell membranes"},
      {"measurement": "membrane luminescence after removal from bath solution", "setting": "INS cells; [7]", "value": "still observed"},
      {"measurement": "light-triggered secretion (amperometric spikes)", "setting": "mouse chromaffin cells; 2 μM RubpyC17, 488 nm", "value": "exhibited numerous amperometric current spikes"},
      {"measurement": "cells with increased secretion during light illumination", "setting": "mouse chromaffin cells; 15 of 18 RubpyC17-loaded cells", "value": 83, "unit": "%"},
      {"measurement": "increase in secretion during light illumination", "setting": "mouse chromaffin cells; responding cells", "value": "at least 100 fold"},
      {"measurement": "time cell morphology preserved", "setting": "HEK293T cells [2]; 10 μM RubpyC17", "value": "at least 10 minutes"},
      {"measurement": "incorporation into plasma membrane (membrane-localized luminescence)", "setting": "HEK293T cells [2]; [6]", "value": "rapidly and stably incorporates into mammalian cell membranes"},
      {"measurement": "membrane luminescence after removal from bath solution", "setting": "HEK293T cells [2]; [7]", "value": "still observed"},
      {"measurement": "effect of light on action potential firing", "setting": "[3]; 900 nM RubpyC17 pretreatment, 5 mM ascorbate", "value": "triggered action potentials or increased the rate of action potential firing"},
      {"measurement": "action potential firing rate, single cell, ascorbate changed for ferricyanide", "setting": "[3]; 2 μM RubpyC17 for 1.5 min", "value": "light-induced increase and then light-induced decrease"},
      {"measurement": "effect of light on action potential firing", "setting": "[3]; 100 μM ferricyanide", "value": "decreased the rate of action potential firing"},
      {"measurement": "action potential waveform shape", "setting": "[3]; before vs during light illumination", "value": "no change in the shape of action potential waveforms"},
      {"measurement": "effect of light on action potential firing", "setting": "[3]; ferricyanide increased from 100 to 200 μM", "value": "further suppressed action potential firing"},
      {"measurement": "histology of the retina", "setting": "RCS rats [4]; 3 days after injection, preliminary", "value": "no evidence of retinal cell death or white blood cell infiltrates"},
      {"measurement": "initial pathology studies", "setting": "RCS rats [4]; eyes injected with Rubpy-C17", "value": "absence of obvious signs of deleterious effects"},
      {"measurement": "pupillary light reflex time", "setting": "RCS rats [5]; injected eye", "value": "< 3", "unit": "s"},
      {"measurement": "pupillary light reflex", "setting": "RCS rats [5]; injected eye vs non-injected eye", "value": "vigorous pupillary light reflex was observed; also recorded: pupil constricts"}
    ]}
  ]
}
